Data: patent US9937115B2, “Oral care compositions with improved flavor” (priority 2010, dated 2018)

How the values were obtained:
TRPA1 receptor [1] = target: T1, TRPA1 receptor (Homo sapiens, UniProt O75762); assay: cell-based; design: activation: dose or concentration left out as unconfirmed; details: for activation at 100 µM / activation: HEK293; for activation at 100 µM / activation / TRPA1 Direct addition: percentage of the control (allyl isothiocyanate) calcium count, material dissolved in DMSO at 100 micromolar, HEK cells with TRPA1; for activation at 100 µM / TRPA1 Direct addition: direct addition; for activation at 100 µM: read-out: TRPA1 Direct addition; for activation: pre-incubation, read-out: TRPA1 Pre-incubation; for % of AITC Receptor Activation (from Data in Table II): restated in Table III from Table II;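 on TRPA1 Pre-incubation: values above 100 mean more active than the control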
T1 construct: expressed in transfected cells; host or cells: HEK cell line
Method in brief: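 HEK cells expressing TRPA1 were treated with test compounds dissolved in DMSO at 100 micromolar, with allyl isothiocyanate as positive control. Agonism was read on a FLIPR as calcium-dye fluorescence counts above background. A TRPA1 activator was defined as giving at least 1000 counts above background at 1 mM.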

[2] = Panelists brushed with dentifrice Formula Ia-Ie and rated reduction in soapy off taste and flavor character; type: in vivo; details: molecule incorporated in toothpaste Formula Ia-Ie; panelists n=4
Source text: Then, these materials were further screened in Test Formula Ia-Ie, by incorporating at the indicated level. After the toothpaste was made, a small group of panelists (n=4) brushed with the dentifrice and rated the reduction in soapy off taste and the flavor character the compound provided.

[3] = concentration where the cooling effect could be clearly recognized; cited from earlier work
TRPA1 receptor [4] = target: T1, TRPA1 receptor; type: cell-based; details: percentage of the control (allyl isothiocyanate) calcium count, material dissolved in DMSO at 100 micromolar, HEK cells with TRPA1

T1 sequence (O75762 whole entry): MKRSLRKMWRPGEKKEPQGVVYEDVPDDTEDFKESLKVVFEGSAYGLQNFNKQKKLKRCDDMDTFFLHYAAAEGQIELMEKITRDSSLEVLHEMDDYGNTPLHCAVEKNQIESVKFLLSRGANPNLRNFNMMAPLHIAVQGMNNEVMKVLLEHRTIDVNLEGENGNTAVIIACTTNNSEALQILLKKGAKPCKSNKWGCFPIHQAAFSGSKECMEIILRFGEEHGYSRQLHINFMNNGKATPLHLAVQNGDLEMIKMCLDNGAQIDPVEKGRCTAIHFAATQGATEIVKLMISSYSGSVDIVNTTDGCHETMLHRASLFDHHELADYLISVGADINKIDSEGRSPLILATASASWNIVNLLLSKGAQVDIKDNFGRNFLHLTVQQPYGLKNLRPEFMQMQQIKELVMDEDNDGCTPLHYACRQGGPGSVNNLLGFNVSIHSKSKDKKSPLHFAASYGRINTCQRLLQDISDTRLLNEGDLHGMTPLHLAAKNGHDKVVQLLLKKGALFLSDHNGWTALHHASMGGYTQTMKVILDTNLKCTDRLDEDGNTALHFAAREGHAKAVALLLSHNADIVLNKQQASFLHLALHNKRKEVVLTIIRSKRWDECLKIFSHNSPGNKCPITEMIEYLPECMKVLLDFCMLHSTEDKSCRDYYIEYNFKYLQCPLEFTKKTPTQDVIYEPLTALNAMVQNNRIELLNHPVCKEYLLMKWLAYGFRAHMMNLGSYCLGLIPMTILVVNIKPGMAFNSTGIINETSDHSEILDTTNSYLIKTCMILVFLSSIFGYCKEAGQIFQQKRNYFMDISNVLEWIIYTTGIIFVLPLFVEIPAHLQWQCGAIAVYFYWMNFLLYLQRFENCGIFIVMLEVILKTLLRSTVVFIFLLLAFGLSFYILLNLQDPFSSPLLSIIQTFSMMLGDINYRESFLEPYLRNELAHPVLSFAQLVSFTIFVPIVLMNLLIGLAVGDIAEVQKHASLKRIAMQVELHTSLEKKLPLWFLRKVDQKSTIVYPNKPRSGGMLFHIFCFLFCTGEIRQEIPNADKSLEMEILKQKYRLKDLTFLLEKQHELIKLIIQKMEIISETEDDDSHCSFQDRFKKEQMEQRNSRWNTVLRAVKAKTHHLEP

## Oc1cc(Cl)ccc1Oc1ccc(Cl)cc1Cl [Triclosan, reference compound]
TRPA1 receptor [1]
  activation at 100 µM: 196%
  activation: -0.05%
  % of AITC Receptor Activation (from Data in Table II): 277%
[2]
  Qualitative Team Evaluations (n = 4): Shifted off-taste from soapy to bitter after 10 minutes

## CC(C)[C@@H]1CC[C@@H](C)C[C@@H]1O [d-neomenthol]
[3]
  cooling threshold: about 25,000 ppb

## O=C(c1ccccc1)c1ccccc1 [Benzophenone]
TRPA1 receptor [1]
  activation at 100 µM: 138%
  activation: 0%
  % of AITC Receptor Activation (from Data in Table II): 138%
[2]
  Qualitative Team Evaluations (n = 4): No observable effect

## CC(C)[C@@H]1CC[C@@H](C)C[C@@H]1O [Material 1-neomenthol, 1-neomenthol]
[3]
  cooling threshold: about 3,000 ppb

## COc1cc(C=O)ccc1OC(=O)C(C)C [Vanillin Isobutyrate]
TRPA1 receptor [1]
  activation at 100 µM: 118%
  activation: -0.11%
  % of AITC Receptor Activation (from Data in Table II): 118%
[2]
  Qualitative Team Evaluations (n = 4): Great reduction in bitter taste with no aftertaste. Slight vanilla character.

## C=CCCCCCCCCC=O [Undecylenic Aldehyde]
TRPA1 receptor [1]
  TRPA1 Direct addition: −14.32%
TRPA1 receptor [4]
  TRPA1 Pre-incubation: 52.14%

## Cc1ccc(C=O)c(O)c1 [2_Hydroxy-4-Methyl Benzaldehyde]
TRPA1 receptor [1]
  TRPA1 Direct addition: 0.4%
TRPA1 receptor [4]
  TRPA1 Pre-incubation: 68.24%

## CC1C2CC(CC2C2CCCC(O)C2)C1(C)C (stereo not drawn) [Sandela]
TRPA1 receptor [1]
  TRPA1 Direct addition: 25.65%
TRPA1 receptor [4]
  TRPA1 Pre-incubation: 94.17%

## [Cl-].[Cl-].[Zn+2] [Zinc Chloride]
TRPA1 receptor [1]
  TRPA1 Direct addition: 5.46%
TRPA1 receptor [4]
  TRPA1 Pre-incubation: 21.61%

## CCOc1cc(C=O)ccc1OC(=O)C(C)C [Ethyl vanillin isobutyrate]
[2]
  Qualitative Team Evaluations (n = 4): Great reduction in bitter taste with no aftertaste. Slight vanilla character. Similar to vanillin isobutyrate

## C=C(C)[C@@H]1CCC2=CCC[C@@H](C)[C@]2(C)C1 [Valencene]
TRPA1 receptor [1]
  TRPA1 Direct addition: 0.1%
TRPA1 receptor [4]
  TRPA1 Pre-incubation: 94.99%

## Benzaldehyde Glyceryl Acetal
TRPA1 receptor [1]
  TRPA1 Direct addition: −2.74%
TRPA1 receptor [4]
  TRPA1 Pre-incubation: 30.62%

## CC(C)[C@@H]1CC[C@@H](C)C[C@H]1O [L-menthol]
[3]
  cooling threshold: about 800 ppb

## CCC(C)/C=C(\C=O)c1ccccc1 (stereo not drawn) [4-Methyl-2-phenyl-2-hexenal, 4-Methyl-2-phenyl-2-hexenal]
TRPA1 receptor [1]
  % of AITC Receptor Activation (from Data in Table II): 132%
[2]
  Qualitative Team Evaluations (n = 4): Reduces the bitterness from alkyl phosphates, but it has a bitter character on its own

## CCC(C)(O)CCCC(C)C (stereo not drawn) [Tetrahydrolinalool]
TRPA1 receptor [1]
  TRPA1 Direct addition: −17.09%
TRPA1 receptor [4]
  TRPA1 Pre-incubation: 70.8%

## CC(=O)/C(C)=C/C1C(C)=CCCC1(C)C (stereo not drawn) [Gamma Methyl Ionone]
TRPA1 receptor [1]
  TRPA1 Direct addition: 4.96%
TRPA1 receptor [4]
  TRPA1 Pre-incubation: 23.55%

## Iso Jasmone
TRPA1 receptor [1]
  TRPA1 Direct addition: 11.48%
TRPA1 receptor [4]
  TRPA1 Pre-incubation: 58.16%

## CCCCCCCCCCCC=O [Lauric Aldehyde]
TRPA1 receptor [1]
  TRPA1 Direct addition: 19.05%
TRPA1 receptor [4]
  TRPA1 Pre-incubation: 85.96%

## CC(=O)CCC1C(C)=CCCC1(C)C (stereo not drawn) [Dihydro-alpha-ionone]
TRPA1 receptor [1]
  TRPA1 Direct addition: 0.11%
TRPA1 receptor [4]
  TRPA1 Pre-incubation: 108.18%

## CC(C)=CC1CC(C)CCO1 (racemic) [Rose Oxide Racemic]
TRPA1 receptor [1]
  TRPA1 Direct addition: −6.68%
TRPA1 receptor [4]
  TRPA1 Pre-incubation: 80.14%

## CCCC(=O)OCc1ccc(OC)cc1 [Anisyl butyrate]
TRPA1 receptor [1]
  TRPA1 Direct addition: −0.03%
TRPA1 receptor [4]
  TRPA1 Pre-incubation: 112.61%

## COc1ccc(CC(C)=O)cc1 [1-(P-Methoxyphenyl)-2-Propanone]
TRPA1 receptor [1]
  TRPA1 Direct addition: 0.49%
TRPA1 receptor [4]
  TRPA1 Pre-incubation: 77.63%

## C/C=C\C(=O)C1C(C)=CCCC1(C)C (stereo not drawn) [Alpha-Damascone]
TRPA1 receptor [1]
  TRPA1 Direct addition: −2.88%
TRPA1 receptor [4]
  TRPA1 Pre-incubation: 96.58%

## C/C=C/c1ccc(OC(=O)Cc2ccccc2)c(OC)c1 [Iso-eugenyl phenylacetate]
TRPA1 receptor [1]
  TRPA1 Direct addition: 29.74%
TRPA1 receptor [4]
  TRPA1 Pre-incubation: 42.19%

## C=C(C)CCCC(C)CCOC(C)=O (stereo not drawn) [Rhodinyl Acetate]
TRPA1 receptor [1]
  TRPA1 Direct addition: −17.14%
TRPA1 receptor [4]
  TRPA1 Pre-incubation: 66.4%

## CC(=O)C1(C)CC2=C(CCCC2(C)C)CC1C (stereo not drawn) [ISO E Super]
TRPA1 receptor [1]
  TRPA1 Direct addition: 11.53%
TRPA1 receptor [4]
  TRPA1 Pre-incubation: −0.4%

## Cc1ccc(C=O)cc1 [P-Totylaldehyde]
TRPA1 receptor [1]
  TRPA1 Direct addition: 11.1%
TRPA1 receptor [4]
  TRPA1 Pre-incubation: 60.52%

## CC(C)=CCCC(C)CCO (stereo not drawn) [Cironellol]
TRPA1 receptor [1]
  TRPA1 Direct addition: −1.03%
TRPA1 receptor [4]
  TRPA1 Pre-incubation: 51.22%

## C=C/C(C)=C/C/C=C(\C)CCC=C(C)C [Farmesene]
TRPA1 receptor [1]
  TRPA1 Direct addition: −0.32%
TRPA1 receptor [4]
  TRPA1 Pre-incubation: 90.8%

## CCOc1cc(C2OCC(C)O2)ccc1O (stereo not drawn) [ethyl vanillin propylene glycol acetal]
TRPA1 receptor [1]
  TRPA1 Direct addition: 0%
TRPA1 receptor [4]
  TRPA1 Pre-incubation: 103.19%

## COC(=O)CCCc1ccccc1 [Methyl 4-Phenyl butyrate]
TRPA1 receptor [1]
  TRPA1 Direct addition: −0.22%
TRPA1 receptor [4]
  TRPA1 Pre-incubation: 98.83%

## O=C(O)C(O)C(O)C(=O)O [L-Tataric Acid]
TRPA1 receptor [1]
  TRPA1 Direct addition: −2.77%
TRPA1 receptor [4]
  TRPA1 Pre-incubation: 79%

## C=C(C)C1CC=C(C)C(OC(=O)CC)C1 (stereo not drawn) [Carvyl Propionate]
TRPA1 receptor [1]
  TRPA1 Direct addition: −0.57%
TRPA1 receptor [4]
  TRPA1 Pre-incubation: 105.07%

## CC(=O)CCc1ccc(O)cc1 [4-P-hydroxyphenyl-2-butanone]
TRPA1 receptor [1]
  TRPA1 Direct addition: 0.2%
TRPA1 receptor [4]
  TRPA1 Pre-incubation: 63.07%

## CC1=C(/C=C/C(C)O)C(C)(C)CCC1 (stereo not drawn) [Beta-ionol]
TRPA1 receptor [1]
  TRPA1 Direct addition: −0.01%
TRPA1 receptor [4]
  TRPA1 Pre-incubation: 114.23%
